Data as given in patent US11572399B2, “Long-acting GIP peptide analogues” (University of Copenhagen, priority 2017, dated 2023).
Like-named read-outs stand apart in the source and are kept apart here. Peptide text beside a SMILES is read from it. * marks the point of attachment. Lauroyl = CCCCCCCCCCCC(=O)*

Assays:
human GIP receptor [1] = molecular target: T1, human GIP receptor (Homo sapiens, UniProt P48546); assay: cAMP accumulation assay, agonism (ligand alone); format: cell-based; conditions: COS-7 cells, Table 1; for Emax: COS-7, intrinsic cAMP activity; for EC50: read-out: cAMP agonism nM (EC50)
T1 construct: host or cells: COS-7, transient transfection (calcium phosphate), cDNA in pCMV-Script
T1 sequence (P48546 22-466): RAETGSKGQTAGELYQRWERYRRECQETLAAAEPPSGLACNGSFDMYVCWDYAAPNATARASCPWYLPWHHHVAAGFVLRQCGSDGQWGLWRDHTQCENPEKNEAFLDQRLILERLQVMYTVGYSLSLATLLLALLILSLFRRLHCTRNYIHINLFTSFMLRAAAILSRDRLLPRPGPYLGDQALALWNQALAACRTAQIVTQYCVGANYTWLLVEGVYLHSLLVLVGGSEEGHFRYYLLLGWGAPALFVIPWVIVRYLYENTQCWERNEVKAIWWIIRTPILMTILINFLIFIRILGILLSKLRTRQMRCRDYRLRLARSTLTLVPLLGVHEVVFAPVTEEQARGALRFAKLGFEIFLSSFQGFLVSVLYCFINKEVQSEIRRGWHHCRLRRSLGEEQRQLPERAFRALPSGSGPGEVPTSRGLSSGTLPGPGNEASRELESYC

human GIP receptor [2] = molecular target: T1, human GIP receptor; assay: 125I-human GIP competition binding assay, in the presence and absence of 2% HSA; conditions: for Binding fold (paired): fold decrease in affinity compared to GIP(3-30)NH2; for Fold change HSA (2%)/Casein (0.1%): IC50 (plus HSA)/IC50 (minus HSA);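 as to all read-outs here: nonspecific binding taken as radioligand bound to untransfected cells, IC50 obtained from nonlinear regression fits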
Procedure: Transient transfection of the COS-7 cells for cAMP accumulation and competition binding was performed using the calcium phosphate precipitation method with the addition of chloroquine^46-47.
Transient transfected COS-7 cells expressing the human GIP receptor were seeded in clear 96-well plates the day after transfection using a number of cells/well that obtained 5-10% specific binding of the added radioactive ligand. The following day, cells were assayed by competition binding for 3 h at 4° C. using 15-40 pM 125 I-human GIP as well as increasing concentrations unlabeled ligand in 50 mM Hepes buffer (pH 7.2) in the presence and absence of 2% HSA. After incubation, the cells were washed twice in ice-cold binding buffer (+/−2% HSA) and lysed using 200 mM NaOH with 1% SDS for 30 min. Nonspecific binding was determined as the binding of radioactive ligand to untransfected cells.
IC50, EC50, and Ki values were determined by nonlinear regression. […] Ki values were based on the formula for one class of binding sites in homologous competition binding studies and the Cheng Prussoffs formula, respectively (DeBlasi et al., 1989). To determine the HSA binding potential, the fold change in affinity (as determined by IC50) was calculated as IC50 (plus HSA)/IC50 (minus HSA).

[3] = binding in 0.1% casein (absence of HSA), log value, read-out: logIC50 0.1% casein (converted)
[4] = Table 3b, initial data, read-out: Binding IC50
[5] = heterologous competition binding, transiently transfected COS-7 cells expressing the human GIP receptor, read-out: Binding

SMILES	Emax (human GIP receptor [1]) [%]	Binding fold (paired) (human GIP receptor [2]; Table 3b) [fold]	Fold change in affinity, IC50 (plus HSA)/IC50 (minus HSA) (human GIP receptor [2]; presence vs absence of 2% HSA, proxy for albumin binding) [fold]	Fold change HSA (2%)/Casein (0.1%) (human GIP receptor [2])	IC50 (human GIP receptor [2]; [3]) [nM]	EC50 (human GIP receptor [1]) [nM]	cAMP agonism Emax (human GIP receptor [1]; intrinsic cAMP activity) [%]	IC50 (human GIP receptor [2]; [4]) [nM]	IC50 (human GIP receptor [2]; [5]) [nM]
CCCCCCCCCCCCCC(=O)N[C@@H](CCC(=O)O)C(=O)NCC(=O)N[C@H](C(=O)N[C@@H](Cc1ccccc1)C(=O)N[C@H](C(=O)N[C@@H](CO)C(=O)N[C@@H](CC(=O)O)C(=O)N[C@@H](Cc1ccc(O)cc1)C(=O)N[C@@H](CO)C(=O)N[C@H](C(=O)N[C@@H](C)C(=O)N[C@@H](CCSC)C(=O)N[C@@H](CC(=O)O)C(=O)N[C@@H](CCCCN)C(=O)N[C@H](C(=O)N[C@@H](Cc1c[nH]cn1)C(=O)N[C@@H](CCC(N)=O)C(=O)N[C@@H](CCC(N)=O)C(=O)N[C@@H](CC(=O)O)C(=O)N[C@@H](Cc1ccccc1)C(=O)N[C@H](C(=O)N[C@@H](CC(N)=O)C(=O)N[C@@H](Cc1c[nH]c2ccccc12)C(=O)N[C@@H](CC(C)C)C(=O)N[C@@H](CC(C)C)C(=O)N[C@@H](C)C(=O)N[C@@H](CCC(N)=O)C(=O)N[C@@H](CCCCN)C(N)=O)C(C)C)[C@@H](C)CC)[C@@H](C)CC)[C@@H](C)CC)[C@@H](C)O [AT110, [hGIP(3-30)NH2—C14/3]]	64	5.2							
CCCCCCCCCCCC(=O)NCCCC[C@H](NC(=O)[C@@H](NC(=O)[C@H](CCCCN)NC(=O)[C@H](CC(=O)O)NC(=O)[C@H](CCSC)NC(=O)[C@H](C)NC(=O)[C@@H](NC(=O)[C@H](CO)NC(=O)[C@H](Cc1ccc(O)cc1)NC(=O)[C@H](CC(=O)O)NC(=O)[C@H](CO)NC(=O)[C@@H](NC(=O)[C@H](Cc1ccccc1)NC(=O)[C@@H](NC(=O)CNC(=O)[C@@H](N)CCC(=O)O)[C@@H](C)O)[C@@H](C)CC)[C@@H](C)CC)[C@@H](C)CC)C(=O)N[C@@H](CCC(N)=O)C(=O)N[C@@H](CCC(N)=O)C(=O)N[C@@H](CC(=O)O)C(=O)N[C@@H](Cc1ccccc1)C(=O)N[C@H](C(=O)N[C@@H](CC(N)=O)C(=O)N[C@@H](Cc1c[nH]c2ccccc12)C(=O)N[C@@H](CC(C)C)C(=O)N[C@@H](CC(C)C)C(=O)N[C@@H](C)C(=O)N[C@@H](CCC(N)=O)C(=O)N[C@@H](CCCCN)C(N)=O)C(C)C [AT116, [hGIP(3-30)NH2—C12/18]] (H-EGTFISDYSIAMDKIK(Lauroyl)QQDFVNWLLAQK-NH2; N-terminus assumed)	0		5.2						
CCCCCCCCCCCCCCCC(=O)N[C@H](C(=O)N[C@@H](Cc1ccccc1)C(=O)N[C@H](C(=O)N[C@@H](CO)C(=O)N[C@@H](CC(=O)O)C(=O)N[C@@H](Cc1ccc(O)cc1)C(=O)N[C@@H](CO)C(=O)N[C@H](C(=O)N[C@@H](C)C(=O)N[C@@H](CCSC)C(=O)N[C@@H](CC(=O)O)C(=O)N[C@@H](CCCCN)C(=O)N[C@H](C(=O)N[C@@H](Cc1c[nH]cn1)C(=O)N[C@@H](CCC(N)=O)C(=O)N[C@@H](CCC(N)=O)C(=O)N[C@@H](CC(=O)O)C(=O)N[C@@H](Cc1ccccc1)C(=O)N[C@H](C(=O)N[C@@H](CC(N)=O)C(=O)N[C@@H](Cc1c[nH]c2ccccc12)C(=O)N[C@@H](CC(C)C)C(=O)N[C@@H](CC(C)C)C(=O)N[C@@H](C)C(=O)N[C@@H](CCC(N)=O)C(=O)N[C@@H](CCCCN)C(N)=O)C(C)C)[C@@H](C)CC)[C@@H](C)CC)[C@@H](C)CC)[C@@H](C)O [AT124, [hGIP(5-30)NH2—C16/5]]	0			5.2	1580				
CCCCCCCCCCCC(=O)N[C@@H](CCC(=O)O)C(=O)NCC(=O)N[C@H](C(=O)N[C@@H](Cc1ccccc1)C(=O)N[C@H](C(=O)N[C@@H](CO)C(=O)N[C@@H](CC(=O)O)C(=O)N[C@@H](Cc1ccc(O)cc1)C(=O)N[C@@H](CO)C(=O)N[C@H](C(=O)N[C@@H](C)C(=O)N[C@@H](CCSC)C(=O)N[C@@H](CC(=O)O)C(=O)N[C@@H](CCCCN)C(=O)N[C@H](C(=O)N[C@@H](Cc1c[nH]cn1)C(=O)N[C@@H](CCC(N)=O)C(=O)N[C@@H](CCC(N)=O)C(=O)N[C@@H](CC(=O)O)C(=O)N[C@@H](Cc1ccccc1)C(=O)N[C@H](C(=O)N[C@@H](CC(N)=O)C(=O)N[C@@H](Cc1c[nH]c2ccccc12)C(=O)N[C@@H](CC(C)C)C(=O)N[C@@H](CC(C)C)C(=O)N[C@@H](C)C(=O)N[C@@H](CCC(N)=O)C(=O)N[C@@H](CCCCN)C(N)=O)C(C)C)[C@@H](C)CC)[C@@H](C)CC)[C@@H](C)CC)[C@@H](C)O [AT101, [hGIP(3-30)NH2—C12/3]]		0.7				0.7	62	9.9	9.9
CC[C@H](C)[C@H](NC(=O)[C@H](CO)NC(=O)[C@H](Cc1ccc(O)cc1)NC(=O)[C@H](CC(=O)O)NC(=O)[C@H](CO)NC(=O)[C@@H](NC(=O)[C@H](Cc1ccccc1)NC(=O)[C@@H](N)[C@@H](C)O)[C@@H](C)CC)C(=O)N[C@@H](C)C(=O)N[C@@H](CCSC)C(=O)N[C@@H](CC(=O)O)C(=O)N[C@@H](CCCCNC(=O)CCCCCCCCCCCCCCCCC(=O)O)C(=O)N[C@H](C(=O)N[C@@H](Cc1c[nH]cn1)C(=O)N[C@@H](CCC(N)=O)C(=O)N[C@@H](CCC(N)=O)C(=O)N[C@@H](CC(=O)O)C(=O)N[C@@H](Cc1ccccc1)C(=O)N[C@H](C(=O)N[C@@H](CC(N)=O)C(=O)N[C@@H](Cc1c[nH]c2ccccc12)C(=O)N[C@@H](CC(C)C)C(=O)N[C@@H](CC(C)C)C(=O)N[C@@H](C)C(=O)N[C@@H](CCC(N)=O)C(=O)N[C@@H](CCCCN)C(N)=O)C(C)C)[C@@H](C)CC [AT141, [hGIP(5-30)NH2—C18diacid/16]]	0			6.5	2000				1900
CCCCCCCCCCCC(=O)NCCCC[C@H](NC(=O)[C@H](CC(=O)O)NC(=O)[C@H](CCSC)NC(=O)[C@H](C)NC(=O)[C@@H](NC(=O)[C@H](CO)NC(=O)[C@H](Cc1ccc(O)cc1)NC(=O)[C@H](CC(=O)O)NC(=O)[C@H](CO)NC(=O)[C@@H](NC(=O)[C@H](Cc1ccccc1)NC(=O)[C@@H](NC(=O)CNC(=O)[C@@H](N)CCC(=O)O)[C@@H](C)O)[C@@H](C)CC)[C@@H](C)CC)C(=O)N[C@H](C(=O)N[C@@H](CCCNC(=N)N)C(=O)N[C@@H](CCC(N)=O)C(=O)N[C@@H](CCC(N)=O)C(=O)N[C@@H](CC(=O)O)C(=O)N[C@@H](Cc1ccccc1)C(=O)N[C@H](C(=O)N[C@@H](CC(N)=O)C(=O)N[C@@H](Cc1c[nH]c2ccccc12)C(=O)N[C@@H](CC(C)C)C(=O)N[C@@H](CC(C)C)C(=O)N[C@@H](C)C(=O)N[C@@H](CCC(N)=O)C(=O)N[C@@H](CCCNC(=N)N)C(N)=O)C(C)C)[C@@H](C)CC [AT153, [hGIP(3-30)NH2[H18R; K30R]-C12/16]]	0								316
CCCCCCCCCCCCCCCCCC(=O)N[C@@H](CCC(=O)O)C(=O)NCC(=O)N[C@H](C(=O)N[C@@H](Cc1ccccc1)C(=O)N[C@H](C(=O)N[C@@H](CO)C(=O)N[C@@H](CC(=O)O)C(=O)N[C@@H](Cc1ccc(O)cc1)C(=O)N[C@@H](CO)C(=O)N[C@H](C(=O)N[C@@H](C)C(=O)N[C@@H](CCSC)C(=O)N[C@@H](CC(=O)O)C(=O)N[C@@H](CCCCN)C(=O)N[C@H](C(=O)N[C@@H](Cc1c[nH]cn1)C(=O)N[C@@H](CCC(N)=O)C(=O)N[C@@H](CCC(N)=O)C(=O)N[C@@H](CC(=O)O)C(=O)N[C@@H](Cc1ccccc1)C(=O)N[C@H](C(=O)N[C@@H](CC(N)=O)C(=O)N[C@@H](Cc1c[nH]c2ccccc12)C(=O)N[C@@H](CC(C)C)C(=O)N[C@@H](CC(C)C)C(=O)N[C@@H](C)C(=O)N[C@@H](CCC(N)=O)C(=O)N[C@@H](CCCCN)C(N)=O)C(C)C)[C@@H](C)CC)[C@@H](C)CC)[C@@H](C)CC)[C@@H](C)O [AT113, [hGIP(3-30)NH2—C18/3]]	77	16380				9.9		41400	41400
CC[C@H](C)[C@H](NC(=O)[C@H](CO)NC(=O)[C@H](Cc1ccc(O)cc1)NC(=O)[C@H](CC(=O)O)NC(=O)[C@H](CO)NC(=O)[C@@H](NC(=O)[C@H](Cc1ccccc1)NC(=O)[C@@H](N)[C@@H](C)O)[C@@H](C)CC)C(=O)N[C@@H](C)C(=O)N[C@@H](CCSC)C(=O)N[C@@H](CC(=O)O)C(=O)N[C@@H](CCCCNC(=O)CCCCCCCCCCCCC(=O)O)C(=O)N[C@H](C(=O)N[C@@H](Cc1c[nH]cn1)C(=O)N[C@@H](CCC(N)=O)C(=O)N[C@@H](CCC(N)=O)C(=O)N[C@@H](CC(=O)O)C(=O)N[C@@H](Cc1ccccc1)C(=O)N[C@H](C(=O)N[C@@H](CC(N)=O)C(=O)N[C@@H](Cc1c[nH]c2ccccc12)C(=O)N[C@@H](CC(C)C)C(=O)N[C@@H](CC(C)C)C(=O)N[C@@H](C)C(=O)N[C@@H](CCC(N)=O)C(=O)N[C@@H](CCCCN)C(N)=O)C(C)C)[C@@H](C)CC [AT139, [hGIP(5-30)NH2—C14diacid/16]]	0			2.6	158				153
